This is an account of results in US20060040312A1 (priority 1999, published 2006).

The test system of series [1] is primary cultures of cortex.
Series [2] deals with histamine-contracted, isolated Guinea pig tracheal segments.
The subject of a further series is cardiac myocytes. It counts as cell-based, rat.
Series [3] has as its system primary cultures of cortex. It is filed as cell-based, rat.
Series [4] relates to primary cortical cultures.
The next series has as its target F425G Shaker mutation (Drosophila melanogaster, UniProt P08510, F425G). The following applies: cited from earlier work.
Series [5] deals with Shaker H4 potassium channel (Drosophila melanogaster, UniProt P08510). Conditions: cited from earlier work.
Sequence of Shaker H4 potassium channel (P08510 whole entry): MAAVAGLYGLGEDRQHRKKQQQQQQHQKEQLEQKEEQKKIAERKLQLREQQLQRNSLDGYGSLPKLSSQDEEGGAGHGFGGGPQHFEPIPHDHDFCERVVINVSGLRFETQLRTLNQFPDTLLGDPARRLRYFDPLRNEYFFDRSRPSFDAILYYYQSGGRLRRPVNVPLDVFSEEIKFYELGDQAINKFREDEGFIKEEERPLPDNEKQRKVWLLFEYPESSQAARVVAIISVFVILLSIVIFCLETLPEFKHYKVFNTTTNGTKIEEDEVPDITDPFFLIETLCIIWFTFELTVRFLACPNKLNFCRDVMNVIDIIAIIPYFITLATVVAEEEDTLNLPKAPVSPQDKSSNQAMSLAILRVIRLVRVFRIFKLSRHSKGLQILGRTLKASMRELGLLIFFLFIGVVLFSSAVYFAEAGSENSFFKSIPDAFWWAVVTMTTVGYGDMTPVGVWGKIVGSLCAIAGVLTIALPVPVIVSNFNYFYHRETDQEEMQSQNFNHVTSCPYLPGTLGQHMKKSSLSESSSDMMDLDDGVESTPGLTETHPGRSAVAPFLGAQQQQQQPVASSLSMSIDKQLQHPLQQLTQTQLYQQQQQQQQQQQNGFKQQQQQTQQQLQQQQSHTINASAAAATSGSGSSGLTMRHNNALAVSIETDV

Sequence of F425G Shaker mutation (P08510 whole entry F425G): as the sequence (P08510 whole entry) above, with F425G counted along it

Take `Nc1ccncc1` [4-AP, 4-aminopyridine]: in series [1], the “effect of K+ channel antagonist on the hyperpolarization seen with 100 nM κ-PVIIA” value is listed as “without any detectable effect”.

Consider `COc1ccc(Cl)cc1C(=O)NCCc1ccc(S(=O)(=O)NC(=O)NC2CCCCC2)cc1` [Glibenclamide], for which the “effect of KATP antagonist on the κ-PVIIA induced hyperpolarization” value in series [1] is on record as “significant reductions”. In addition, in series [2], the “effect of KATP channel antagonist on the κ-PVIIA response” value was “reduce effects of κ-PVIIA”. The “sensitivity of κ-PVIIA-evoked currents to KATP antagonist” value with cardiac myocytes is “sensitive”.

Consider `CCCCNC(=O)NS(=O)(=O)c1ccc(C)cc1` [Tolbutamide], for which, in series [1], the “effect of KATP antagonist on the κ-PVIIA induced hyperpolarization” value is “significant reductions” and the “inhibition of the κ-PVIIA (100 nM) response” value was “inhibition”. The “effect of KATP antagonist on κ-PVIIA protection against glutamate cytotoxicity” value in the series on cortical cells is “blocked”. Also, the “sensitivity of κ-PVIIA-evoked currents to KATP antagonist” value in series [3] is reported as “sensitive”. The “effect of KATP channel antagonist on the κ-PVIIA response” value in series [2] is recorded as “reduce effects of κ-PVIIA”.

Take “Iberiotoxin (QFTDVDCSVSKECWSVCKDLFGVDRGKCMGKKCRCYQ; UniProt P24663 1-37, looked up) [IBTX]”: the “effect of K+ channel antagonist on the hyperpolarization seen with 100 nM κ-PVIIA” value in series [1] is recorded as “without any detectable effect”.

For Triton [reference compound], the “increase in fluorescence (Enzchek protease-sensitive dye)” value in series [4] was ~14%.

In the case of charybdotoxin [reference compound], the “effect of F425G Shaker mutation on toxin affinity / sensitivity” value with F425G Shaker mutation is recorded as “increases charybdotoxin affinity by three orders of magnitude”. In addition, the “block / inhibition of the Shaker channel” value in series [5] is listed as “inhibit”.
